According to US20240124454A1, “TRICYCLIC COMPOUND AND USE THEREOF” (NANJING ZAIMING PHARMACEUTICAL CO., LTD., priority 2020, published 2024):
Where two headings read alike, the source gives them in different places.

Target: MAT2A (Homo sapiens (Human), UniProt P31153)
Experiment: MAT2A biochemical test (inorganic phosphate colorimetric, PiColorLock)
Details: read-out: MAT2A inhibitory Activity IC50
Text: Test Example 1. Biochemical Test
The brief introduction of the test principle: L-methionine and ATP can be converted into SAM, inorganic phosphate, and inorganic diphosphate under the catalysis of MAT2A enzymes. The content of inorganic phosphate in the sample can be quantitatively determined by adding a developer such as ammonium molybdate or the like to the enzymatic reaction mixture, thereby reflecting the enzymatic activity of MAT2A.
Reference: The experiment referred to the method disclosed in patent WO2018045071.
Material: MAT2A screening kits were purchased from BPS bioscience (U.S.); 384-well plates were purchased from Corning Company (U.S.). • 1. MAT2A protein (Pharmaron Beijing Co., Ltd.); • 2. L-methionine (Sigma #M9625-5G) • 3. ATP (Sigma #A7699-1G) • 4. KCl (Sigma #60142-500ML-F) • 5. Tris (Sigma #T2663-1L) • 6. MgCl2 (Sigma #M1028) • 7. EDTA (Invitrogen #AM9260G) • 8. BSA (Sangon Biotech #A500023-0100) • 9. PiColorLock (abcam #ab270004)
Detection method: In the experimental group, the test compound was dissolved in DMSO, diluted to a final concentration of 10 μM using Echo, and diluted 3-fold. 80 nL of the dilution was transferred to a 384-well plate.
The experimental buffer (50 mM Tris, 50 mM KCl, 15 mM MgCl2, 100 μM EDTA, 0.005% BSA) was prepared. The MAT2A protein was diluted with the experimental buffer (at final concentration of […]). 40 μL of 2×MAT2A solution was added to the 384-well plate. The plate was centrifuged at 1000 rpm for 1 min and incubated at room temperature for 120 min.
L-methionine and ATP (the final concentration of L-methionine was […] and the final concentration of ATP was 400 μM) were diluted with the experimental buffer. 40 μL of 2×L-methionine and ATP solution was added to initiate the reaction. The plate was centrifuged at 1000 rpm for 1 min and incubated at room temperature for 90 min.
The PiColorLock™ reaction catalyst was mixed with the PiColorLock™ buffer at a ratio of 1:100 according to the instructions. 20 μL was added to each well, and the plate was shaken for 30 s. 8 μL stabilizing reagent was added, and the plate was shaken for 30 s. The signal values were measured after 30 min of incubation at room temperature.
A negative control group and a positive control group were respectively used as Bottom and Top. The negative control group was not added with MAT2A protein, and other operations were consistent with those of the experimental group. The positive control group was not added with the test compound, only added with DMSO in the same volume, and other operations were consistent with those of the experimental group.
The % Compound inhibition was calculated and fitted to give the IC50 of the compound.
% Compound inhibition=1-100%×(Signal−Bottom)/(Top−Bottom).
Signal referred to the signal value of the experimental group, Bottom referred to the average signal value of the negative control group, and Top referred to the average signal value of the positive control group.
Under the condition of this experiment, the inhibitory effect of the test compound on MAT2A can be expressed as the IC50 of the inhibition on the phosphate production level during the enzymatic reaction.

Sequence of MAT2A (P31153 whole entry): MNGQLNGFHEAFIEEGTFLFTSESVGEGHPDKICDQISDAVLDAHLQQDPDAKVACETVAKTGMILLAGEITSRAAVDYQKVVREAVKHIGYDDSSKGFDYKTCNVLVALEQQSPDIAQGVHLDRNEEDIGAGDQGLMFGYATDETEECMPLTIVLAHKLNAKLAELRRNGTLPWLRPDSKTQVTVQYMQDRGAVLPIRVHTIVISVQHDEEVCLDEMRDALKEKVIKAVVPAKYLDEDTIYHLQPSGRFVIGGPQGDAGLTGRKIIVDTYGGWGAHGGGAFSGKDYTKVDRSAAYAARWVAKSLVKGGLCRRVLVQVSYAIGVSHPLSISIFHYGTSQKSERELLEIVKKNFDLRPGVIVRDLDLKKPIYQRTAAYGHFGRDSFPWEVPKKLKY

CCOc1ccc2c3[nH]c(OC)nc3c(=O)n(-c3ccc(OC(F)F)cc3)c2n1 [Compound 11, 5-(4-(difluoromethoxy)phenyl)-7-ethoxy-2-methoxy-1,5-dihydro-4H-imidazo[4,5-c][1,8]naphthyridin-4-one]
IC50 (class symbols): < 100 nM
IC50 (numeric values): 56.6 nM

Cn1cc2c(n1)c(=O)n(-c1ccc(OC(F)F)cc1)c1nc(C(F)(F)F)ccc21 [Compound 12, 5-(4-(difluoromethoxy)phenyl)-2-methyl-7-(trifluoromethyl)-2,5-dihydro-4H-pyrazolo[3,4-c][1,8]naphthyridin-4-one]
IC50 (class symbols): 100 to 500 nM
IC50 (numeric values): 102 nM

CCOc1ccc2c3cn(C)nc3c(=O)n(-c3ccc(OC(F)F)cc3)c2n1 [Compound 13, 5-(4-(difluoromethoxy)phenyl)-7-ethoxy-2-methyl-2,5-dihydro-4H-pyrazolo[3,4-c][1,8]naphthyridin-4-one]
IC50 (class symbols): 100 to 500 nM
IC50 (numeric values): 122 nM

CCOc1ccc2c3c(ncn3C)c(=O)n(-c3ccc(OC(F)F)cc3)c2n1 [Compound 14, 5-(4-(difluoromethoxy)phenyl)-7-ethoxy-1-methyl-1,5-dihydro-4H-imidazo[4,5-c][1,8]naphthyridin-4-one]
IC50 (class symbols): < 100 nM
IC50 (numeric values): 46.4 nM

Cn1cnc2c(=O)n(-c3ccc(OC(F)F)cc3)c3nc(C(F)(F)F)ccc3c21 [Compound 15, 5-(4-(difluoromethoxy)phenyl)-1-methyl-7-(trifluoromethyl)-1H-imidazo[4,5-c][1,8]naphthyridin-4(5H)-one]
IC50 (class symbols): < 100 nM
IC50 (numeric values): 38.5 nM

O=c1c2ncoc2c2ccc(C(F)(F)F)nc2n1-c1ccc(OC(F)F)cc1 [Compound 16, 5-(4-(difluoromethoxy)phenyl)-7-(trifluoromethyl)oxazolo[4,5-c][1,8]naphthyridin-4(5H)-one]
IC50 (class symbols): 100 to 500 nM
IC50 (numeric values): 122 nM

O=c1c2ocnc2c2ccc(C(F)(F)F)nc2n1-c1ccc(OC(F)F)cc1 [Compound 18, 5-(4-(difluoromethoxy)phenyl)-7-(trifluoromethyl)oxazolo[5,4-c][1,8]naphthyridin-4(5H)-one]
IC50 (class symbols): 100 to 500 nM
IC50 (numeric values): 442 nM

Cn1cnc2c(=O)n(-c3ccc(Cl)cc3)c3nc(C(F)(F)F)ccc3c21 [Compound 19, 5-(4-chlorophenyl)-1-methyl-7-(trifluoromethyl)-1,5-dihydro-4H-imidazo[4,5-c][1,8]naphthyridin-4-one]
IC50 (class symbols): < 100 nM
IC50 (numeric values): 51.4 nM

Cn1cnc2c(=O)n(-c3ccccc3)c3nc(C(F)(F)F)ccc3c21 [Compound 21, 1-methyl-5-phenyl-7-(trifluoromethyl)-1,5-dihydro-4H-imidazo[4,5-c][1,8]naphthyridin-4-one]
IC50 (class symbols): < 100 nM
IC50 (numeric values): 64.9 nM

Cn1cnc2c(=O)n(-c3cccc(Cl)c3)c3nc(C(F)(F)F)ccc3c21 [Compound 22, 5-(3-chlorophenyl)-1-methyl-7-(trifluoromethyl)-1,5-dihydro-1H-imidazo[4,5-c][1,8]naphthyridin-4-one]
IC50 (class symbols): 100 to 500 nM

Cn1cnc2c(=O)n(-c3ccccc3F)c3nc(C(F)(F)F)ccc3c21 [Compound 23, 5-(2-fluorophenyl)-1-methyl-7-(trifluoromethyl)-1,5-dihydro-4H-imidazo[4,5-c][1,8]naphthyridin-4-one]
IC50 (class symbols): < 100 nM
IC50 (numeric values): 78.8 nM

Cn1cnc2c(=O)n(-c3c(F)cccc3Cl)c3nc(C(F)(F)F)ccc3c21 [Compound 26, 5-(2-chloro-6-fluorophenyl)-1-methyl-7-(trifluoromethyl)-1,5-dihydro-4H-imidazo[4,5-c][1,8]naphthyridin-4-one]
IC50 (class symbols): 100 to 500 nM
IC50 (numeric values): 135 nM

Cc1cnccc1-n1c(=O)c2ncn(C)c2c2ccc(C(F)(F)F)nc21 [Compound 27, 1-methyl-5-(3-methylpyridin-4-yl)-7-(trifluoromethyl)-1,5-dihydro-4H-imidazo[4,5-c][1,8]naphthyridin-4-one]
IC50 (class symbols): 500 to 1000 nM
IC50 (numeric values): 819 nM

Cc1ccncc1-n1c(=O)c2ncn(C)c2c2ccc(C(F)(F)F)nc21 [Compound 28, 1-methyl-5-(4-methylpyridin-3-yl)-7-(trifluoromethyl)-1,5-dihydro-4H-imidazo[4,5-c][1,8]naphthyridin-4-one]
IC50 (class symbols): 100 to 500 nM
IC50 (numeric values): 165 nM

Cc1ccccc1-n1c(=O)c2ncn(C)c2c2ccc(C(F)(F)F)nc21 [Compound 31, 1-methyl-5-(2-methylphenyl)-7-(trifluoromethyl)-1,5-dihydro-4H-imidazo[4,5-c][1,8]naphthyridin-4-one]
IC50 (class symbols): 100 to 500 nM
IC50 (numeric values): 159 nM

Cn1cnc2c(=O)n(-c3ccc(F)cc3Cl)c3nc(C(F)(F)F)ccc3c21 [Compound 32, 5-(2-chloro-4-fluorophenyl)-1-methyl-7-(trifluoromethyl)-1,5-dihydro-4H-imidazo[4,5-c][1,8]naphthyridin-4-one]
IC50 (class symbols): 100 to 500 nM
IC50 (numeric values): 119 nM

COc1ccccc1-n1c(=O)c2ncn(C)c2c2ccc(C(F)(F)F)nc21 [Compound 33, 5-(2-methoxyphenyl)-1-methyl-7-(trifluoromethyl)-1,5-dihydro-4H-imidazo[4,5-c][1,8]naphthyridin-4-one]
IC50 (class symbols): < 100 nM
IC50 (numeric values): 67.6 nM

CC(C)c1ccccc1-n1c(=O)c2ncn(C)c2c2ccc(C(F)(F)F)nc21 [Compound 34, 5-(2-isopropylphenyl)-1-methyl-7-(trifluoromethyl)-1,5-dihydro-4H-imidazo[4,5-c][1,8]naphthyridin-4-one]
IC50 (class symbols): < 100 nM
IC50 (numeric values): 73.1 nM

O=c1c2ncn(CCO)c2c2ccc(C(F)(F)F)nc2n1-c1ccccc1Cl [Compound 50, 5-(2-chlorophenyl)-1-(2-hydroxyethyl)-7-(trifluoromethyl)-1,5-dihydro-4H-imidazo[4,5-c][1,8]naphthyridin-4-one]
IC50 (class symbols): 100 to 500 nM
IC50 (numeric values): 113 nM

O=c1c2ocnc2c2ccc(C(F)(F)F)nc2n1-c1ccccc1Cl [Compound 51, 5-(2-chlorophenyl)-7-(trifluoromethyl)oxazolo[5,4-c][1,8]naphthyridin-4(5H)-one]
IC50 (class symbols): 100 to 500 nM
IC50 (numeric values): 182 nM

Cn1cnc2c(=O)n(-c3cccc(C#N)c3)c3nc(C(F)(F)F)ccc3c21 [Compound 52, 3-(1-methyl-4-oxo-7-(trifluoromethyl)-1,4-dihydro-5H-imidazo[4,5-c][1,8]naphthyridin-5-yl)benzonitrile]
IC50 (class symbols): < 100 nM
IC50 (numeric values): 47.2 nM

CN(C)CCn1cnc2c(=O)n(-c3ccccc3Cl)c3nc(C(F)(F)F)ccc3c21 [Compound 53, 5-(2-chlorophenyl)-1-(2-(dimethylamino)ethyl)-7-(trifluoromethyl)-1,5-dihydro-4H-imidazo[4,5-c][1,8]naphthyridin-4-one]
IC50 (class symbols): 100 to 500 nM
IC50 (numeric values): 314 nM

CNCCn1cnc2c(=O)n(-c3ccccc3Cl)c3nc(C(F)(F)F)ccc3c21 [Compound 54, 5-(2-chlorophenyl)-1-(2-(methylamino)ethyl)-7-(trifluoromethyl)-1,5-dihydro-4H-imidazo[4,5-c][1,8]naphthyridin-4-one]
IC50 (class symbols): 500 to 1000 nM
IC50 (numeric values): 530 nM

NCCn1cnc2c(=O)n(-c3ccccc3Cl)c3nc(C(F)(F)F)ccc3c21 [Compound 55, 1-(2-aminoethyl)-5-(2-chlorophenyl)-7-(trifluoromethyl)-1,5-dihydro-4H-imidazo[4,5-c][1,8]naphthyridin-4-one]
IC50 (class symbols): 100 to 500 nM
IC50 (numeric values): 296 nM

Cc1ccc2c3c(ncn3C)c(=O)n(-c3ccccc3Cl)c2n1 [Compound 56, 5-(2-chlorophenyl)-1,7-dimethyl-1,5-dihydro-4H-imidazo[4,5-c][1,8]naphthyridin-4-one]
IC50 (class symbols): < 100 nM
IC50 (numeric values): 73.7 nM

COc1ccc(-n2c(=O)c3ncn(C)c3c3ccc(C(F)(F)F)nc32)cc1 [Compound 59, 5-(4-methoxyphenyl)-1-methyl-7-(trifluoromethyl)-1,5-dihydro-4H-imidazo[4,5-c][1,8]naphthyridin-4-one]
IC50 (class symbols): 100 to 500 nM
IC50 (numeric values): 252 nM

Cn1nccc1-n1c(=O)c2ncn(C)c2c2ccc(C(F)(F)F)nc21 [Compound 60, 1-methyl-5-(1-methyl-1H-pyrazol-5-yl)-7-(trifluoromethyl)-1,5-dihydro-4H-imidazo[4,5-c][1,8]naphthyridin-4(5H)-one]
IC50 (class symbols): 100 to 500 nM
